Molecules are shown by their SMILES.

The target in one assay is T1, human CGT (Homo sapiens, UniProt Q16880).
T1 sequence (Q16880 21-541): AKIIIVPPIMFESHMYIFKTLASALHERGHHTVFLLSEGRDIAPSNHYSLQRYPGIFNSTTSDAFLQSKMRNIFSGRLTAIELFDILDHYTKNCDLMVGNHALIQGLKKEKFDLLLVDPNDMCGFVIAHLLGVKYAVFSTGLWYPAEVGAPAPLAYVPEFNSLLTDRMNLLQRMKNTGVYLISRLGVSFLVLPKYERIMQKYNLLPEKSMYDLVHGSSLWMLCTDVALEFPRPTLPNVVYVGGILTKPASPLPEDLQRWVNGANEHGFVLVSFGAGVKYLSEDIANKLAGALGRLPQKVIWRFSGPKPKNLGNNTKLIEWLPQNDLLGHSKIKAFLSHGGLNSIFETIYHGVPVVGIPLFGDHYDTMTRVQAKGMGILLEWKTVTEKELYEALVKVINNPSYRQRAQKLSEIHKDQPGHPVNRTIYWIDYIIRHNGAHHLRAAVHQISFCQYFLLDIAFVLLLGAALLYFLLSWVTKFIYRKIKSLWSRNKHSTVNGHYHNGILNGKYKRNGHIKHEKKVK
Put plainly: Assay 1: CGT Enzymatic Assay (RapidFire/MS/MS, 0.01% Tween 80). The conditions noted are these: Table 1, Compounds of Formula (I) and Formula (II); CGT enzymatic assay, C6-NBD-dihydro-galactosylceramide readout; read-out: IC50. It is filed as biochemical.
By IC50 is commonly meant the point on the concentration scale where inhibition reaches its midpoint. On to `Cc1ccc(N2C(=O)N(c3ccc(C#N)cc3)C3(CCC3)C2(O)c2cccc(C#N)c2)cc1` (stereo not drawn) [Compound 280, 3-(5-(4-cyanophenyl)-8-hydroxy-6-oxo-7-(p-tolyl)-5,7-diazaspiro[3.4]octan-8-yl)benzonitrile], for which the IC50 is less than 1000 nM.

Turning to `Cc1ccc(N2C(=O)N(c3ccc(C)cc3)C(O)(c3cccc(OC(F)F)c3)C23COC3)cc1` (stereo not drawn) [Compound 290, 8-(3-(difluoromethoxy)phenyl)-8-hydroxy-5,7-di-p-tolyl-2-oxa-5,7-diazaspiro[3.4]octan-6-one], the IC50 was less than 1000 nM.

The same assay, now with this note: Table 1, Compounds of Formula (I) and Formula (II); CGT enzymatic assay; read-out: IC50.
As for `O=C1N(c2ccc(Cl)cc2)C2(CCC2)C(O)(c2cccc(OC(F)F)c2)N1c1ccc(Cl)cc1` (stereo not drawn) [Example 165, 5,7-bis(4-chlorophenyl)-8-(3-(difluoromethoxy)phenyl)-8-hydroxy-5,7-diazaspiro[3.4]octan-6-one], the IC50 was less than 1000 nM.

As to `C[C@H]1N(c2ccc(Cl)cc2)C(=O)N(c2ccc(Cl)cc2)C1(O)c1cccc(OC(F)(F)F)c1` (stereo partly drawn) [Compound 129-2, (5R)-1,3-bis(4-chlorophenyl)-4-hydroxy-5-methyl-4-(3-(trifluoromethoxy)phenyl)imidazolidin-2-one], the IC50 is less than 1000 nM.

With `CC[C@H]1N(c2ccc(Cl)cc2)C(=O)N(c2ccc(Cl)cc2)C1(O)c1cccc(Cl)c1` (stereo partly drawn) [Compound 81-2, (5R)-4-(3-chlorophenyl)-1,3-bis(4-chlorophenyl)-5-ethyl-4-hydroxyimidazolidin-2-one], the IC50 was less than 1000 nM.

For the compound `CC1N(c2ccc(Cl)cc2)C(=O)N(c2ccc(Cl)cc2)C1(O)c1cccc(OC(F)(F)F)c1` (stereo not drawn) [Compound 129, 1,3-bis(4-chlorophenyl)-4-hydroxy-5-methyl-4-(3-(trifluoromethoxy)phenyl)imidazolidin-2-one], the IC50 was less than 1000 nM.

Take `CCC[C@@]1(C)N(c2ccc(Cl)cc2)C(=O)N(c2ccc(Cl)cc2)C1(O)c1cccc(OC(F)(F)F)c1` (single isomer, unassigned) [Example 170-1]: the IC50 was 10000 to 50000 nM.

With `CCC1N(c2ccc(Cl)cc2)C(=O)N(c2ccc(Cl)cc2)C1(O)c1cccc(OC(F)(F)F)c1` (stereo in doubt) [Compound 82-1, (5S)-1,3-bis(4-chlorophenyl)-5-ethyl-4-hydroxy-4-(3-(trifluoromethoxy)phenyl)imidazolidin-2-one], the IC50 was less than 1000 nM.

In the case of `CCCC1N(c2ccc(Br)cc2)C(=O)N(c2ccc(Br)cc2)C1(O)c1cccc(C)c1` (stereo not drawn) [Compound 96, 1,3-bis(4-bromophenyl)-4-hydroxy-5-propyl-4-(m-tolyl)imidazolidin-2-one], the IC50 was less than 1000 nM.

Consider `CC[C@@H]1N(c2ccc(F)cc2)C(=O)N(c2ccc(F)cc2)C1(O)c1cccc(C(F)(F)F)c1` (single isomer, unassigned) [Compound 139-1], for which the IC50 was in the range of 1000 to 10000 nM.

For the compound `CC(C)c1ccc(C2(O)C(=O)N(c3ccccc3)C(=O)N2c2ccccc2)cc1` (stereo not drawn) [Compound 153, 5-hydroxy-5-(4-isopropylphenyl)-1,3-diphenylimidazolidine-2,4-dione], the IC50 was more than 50000 nM.

In the case of `C[C@@H]1N(c2ccc(F)cc2)C(=O)N(c2ccc(F)cc2)C1(O)c1cccc(OC(F)(F)F)c1` (stereo partly drawn) [Compound 130-1, (5S)-1,3-bis(4-fluorophenyl)-4-hydroxy-5-methyl-4-(3-(trifluoromethoxy)phenyl)imidazolidin-2-one], the IC50 is less than 1000 nM.

Regarding `CC1(C)N(c2ccc(Cl)cc2)C(=O)N(c2ccc(Cl)cc2)C1(O)c1cccnc1` (stereo not drawn) [Example 189, 1,3-bis(4-chlorophenyl)-4-hydroxy-5,5-dimethyl-4-(pyridin-3-yl)imidazolidin-2-one], the IC50 was less than 1000 nM.

For the compound `CC(C)c1cccc(C2(O)CN(c3ccc(Br)cc3)C(=O)N2c2ccc(Br)cc2)c1` (stereo not drawn) [Compound 59, 1,3-bis(4-bromophenyl)-4-hydroxy-4-(3-isopropylphenyl)imidazolidin-2-one], the IC50 fell in the range of 1000 to 10000 nM.

Take `CCC1N(c2ccc(Cl)cc2)C(=O)N(c2ccc(Cl)cc2)C1(O)c1cccc(Cl)c1` (stereo not drawn) [Compound 81, 4-(3-chlorophenyl)-1,3-bis(4-chlorophenyl)-5-ethyl-4-hydroxyimidazolidin-2-one]: the IC50 is less than 1000 nM.

Values taken from patent US20190134005A1 (BioMarin Pharmaceutical Inc., priority 2016, published 2019).
